Data reported in patent publication US20220370416A1, “COMPOUNDS AND METHODS FOR TARGETED DEGRADATION OF KRAS” (Arvinas Operations, Inc., priority 2020, published 2022).

What was measured:
HiBit-KRAS^G12C [1] = target: T1, HiBit-KRAS^G12C (Homo sapiens, UniProt P01116, G12C); test: HiBit degradation assay in MiaPaCa-2 HiBit-KRas^G12C cells; type: cell-based; conditions: 24 hours; for Dmax: maximum degradation
Method in brief: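 DC50 and Dmax come from 4-parameter fits of DMSO-normalized HiBit luminescence after 24 hours' exposure at 37° C to 10 μM–20 nM compound in 0.1% or 0.5% DMSO. Cells: MiaPaCa-2 carrying one endogenously HiBit-tagged KRAS^G12C allele; concentrations causing ≥50% […] viability loss (alamar blue) excluded.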

HiBit-KRAS^G12C [2] = target: T1, HiBit-KRAS^G12C; test: HiBit degradation assay in SW1573 HiBit-KRas^G12C cells; type: cell-based; set-up: expressed in transfected cells; host or cells: SW1573 (clone E6), modified pcDNA3.1 vector, TK promoter; conditions: 24 hours; for DC50: read-out: KRas^G12C-HIBit (SW1573; 0.1% DMSO) DC50*
Method in brief: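 HiBit-KRAS G12C degradation was measured after a 24 h compound exposure (titrated 10 μM–20 nM) in engineered SW1573 cells. Lytic HiBit luminescence, expressed relative to DMSO controls, yielded DC50 and Dmax from 4-parameter fits. Concentrations causing ≥50% loss in alamar blue viability were omitted as cytotoxic.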

[3] = MIA PaCa-2, MiaPaCa-2 HiBit-KRas^G12C cells, 0.1% DMSO, read-out: KRas^G12C-HiBiT (MiaPaCa; 0.1% DMSO) DMax
[4] = MIA PaCa-2, MiaPaCa-2 HiBit-KRas^G12C cells, 0.5% DMSO, read-out: KRas^G12C-HiBiT (MiaPaCa; 0.5% DMSO) DMax
[5] = SW1573, SW1573 HiBit-KRas^G12C, 0.1% DMSO, read-out: KRas^G12C-HiBit (SW1573; 0.1% DMSO) Dmax**
[6] = SW1573, SW1573 HiBit-KRas^G12C, 0.5% DMSO, read-out: KRas^G12C-HiBiT (SW1573; 0.5% DMSO) Dmax**
[7] = SW1573 HiBit-KRas^G12C, 0.1% DMSO
[8] = read-out: KRas^G12C-HiBiT (MiaPaCa; 0.1% DMSO) IC50, MiaPaCa-2 HiBit-KRas^G12C cells, 0.1% DMSO

T1 sequence (P01116 1-186 isoform P01116-2 G12C limits assumed): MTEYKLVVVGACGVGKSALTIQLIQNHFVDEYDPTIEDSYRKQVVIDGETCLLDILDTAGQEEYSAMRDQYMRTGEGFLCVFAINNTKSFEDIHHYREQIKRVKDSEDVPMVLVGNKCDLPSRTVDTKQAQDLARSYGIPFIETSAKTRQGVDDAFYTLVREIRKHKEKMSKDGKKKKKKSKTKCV

| Dmax (HiBit-KRAS^G12C [1]; [3]) [%] | Dmax (HiBit-KRAS^G12C [1]; [4]) [%] | Dmax (HiBit-KRAS^G12C [2]; [5]) [%] | Dmax (HiBit-KRAS^G12C [2]; [6]) [%] | DC50 (HiBit-KRAS^G12C [2]; [7]) [µM] | DC50 (HiBit-KRAS^G12C [1]; [8]) [µM] | DC50 (HiBit-KRAS^G12C [1]; read-out: KRas^G12C-HiBiT (MiaPaCa; 0.5% DMSO) IC50, MiaPaCa-2 HiBit-KRas^G12C cells, 0.5% DMSO) [µM] | Structure (SMILES) | Dmax (HiBit-KRAS^G12C [1]; MIA PaCa-2, read-out: KRas^G12C-HiBiT (MiaPaCa; 0.1% DMSO) DMax, MiaPaCa-2 HiBit-KRas^G12C cells, 0.1% DMSO) [%] | Dmax (HiBit-KRAS^G12C [1]; MIA PaCa-2, read-out: KRas^G12C-HiBiT (MiaPaCa; 0.5% DMSO) DMax, MiaPaCa-2 HiBit-KRas^G12C cells, 0.5% DMSO) [%] | Dmax (HiBit-KRAS^G12C [2]; SW1573, read-out: KRas^G12C-HiBiT (SW1573; 0.5% DMSO) Dmax**, SW1573 HiBit-KRas^G12C, 0.5% DMSO) [%] | Dmax (HiBit-KRAS^G12C [2]; SW1573, read-out: KRas^G12C-HiBit (SW1573; 0.1% DMSO) Dmax**, SW1573 HiBit-KRas^G12C, 0.1% DMSO) [%] |
| --- | --- | --- | --- | --- | --- | --- | --- | --- | --- | --- | --- |
| 35 to 70 | 35 to 70 | 35 to 70 | 35 to 70 | 0.1 to 1 |  |  | C=CC(=O)N1CCN(c2nc(O[C@H](C)CN3CCC(OCCOCC(=O)N[C@H](C(=O)N4C[C@H](O)C[C@H]4C(=O)N[C@@H](C)c4ccc(-c5scnc5C)cc4)C(C)(C)C)CC3)nc3c(F)c(-c4cc(O)cc5ccccc45)c(Cl)cc23)C[C@@H]1CC#N [Compound 33, (2S,4R)-1-[(2S)-2-{2-[2-({1-[(2R)-2-({6-chloro-4-[(3S)-3-(cyanomethyl)-4-(prop-2-enoyl)piperazin-1-yl]-8-fluoro-7-(3-hydroxynaphthalen-1-yl)quinazolin-2-yl}oxy)propyl]piperidin-4-yl}oxy)ethoxy]acetamido}-3,3-dimethylbutanoyl]-4-hydroxy-N-[(1S)-1-[4-(4-methyl-1,3-thiazol-5-yl)phenyl]ethyl]pyrrolidine-2-carboxamide] |  |  |  |  |
|  |  | < 35 |  | 0.1 to 1 | > 1 |  | C=CC(=O)N1CCN(c2nc(O[C@H](C)CN3CCC(C(=O)N[C@H](C(=O)N4C[C@H](O)C[C@H]4C(=O)N[C@@H](C)c4ccc(-c5scnc5C)cc4)C(C)(C)C)CC3)nc3c(F)c(-c4cc(O)cc5ccccc45)c(Cl)cc23)CC1 [Compound 34, 1-[(2R)-2-{[6-chloro-8-fluoro-7-(3-hydroxynaphthalen-1-yl)-4-[4-(prop-2-enoyl)piperazin-1-yl]quinazolin-2-yl]oxy}propyl]-N-[(2S)-1-[(2S,4R)-4-hydroxy-2-{[(1S)-1-[4-(4-methyl-1,3-thiazol-5-yl)phenyl]ethyl]carbamoyl}pyrrolidin-1-yl]-3,3-dimethyl-1-oxobutan-2-yl]piperidine-4-carboxamide] |  |  |  |  |
| < 35 | 35 to 70 | 35 to 70 | 35 to 70 | 0.1 to 1 |  |  | C=CC(=O)N1C[C@H](C)N(c2nc(OCCN3CCC(COCC(=O)N[C@H](C(=O)N4C[C@H](O)C[C@H]4C(=O)N[C@@H](C)c4ccc(-c5scnc5C)cc4)C(C)(C)C)CC3)nc3c(F)c(-c4cc(O)cc5ccccc45)c(Cl)cc23)C[C@H]1C [Compound 36, (2S,4R)-1-[(2S)-2-[2-({1-[2-({6-chloro-4-[(2S,5R)-2,5-dimethyl-4-(prop-2-enoyl)piperazin-1-yl]-8-fluoro-7-(3-hydroxynaphthalen-1-yl)quinazolin-2-yl}oxy)ethyl]piperidin-4-yl}methoxy)acetamido]-3,3-dimethylbutanoyl]-4-hydroxy-N-[(1S)-1-[4-(4-methyl-1,3-thiazol-5-yl)phenyl]ethyl]pyrrolidine-2-carboxamide] |  |  |  |  |
| < 35 |  | 35 to 70 |  | 0.1 to 1 |  |  | C=CC(=O)N1CCN(c2nc(O[C@H](C)CN3CCC(CCC(=O)N[C@H](C(=O)N4C[C@H](O)C[C@H]4C(=O)N[C@@H](C)c4ccc(-c5scnc5C)cc4)C(C)(C)C)CC3)nc3c(F)c(-c4cc(O)cc5ccccc45)c(Cl)cc23)CC1 [Compound 37, (2S,4R)-1-[(2S)-2-(3-{1-[(2R)-2-{[6-chloro-8-fluoro-7-(3-hydroxynaphthalen-1-yl)-4-[4-(prop-2-enoyl)piperazin-1-yl]quinazolin-2-yl]oxy}propyl]piperidin-4-yl}propanamido)-3,3-dimethylbutanoyl]-4-hydroxy-N-[(1S)-1-[4-(4-methyl-1,3-thiazol-5-yl)phenyl]ethyl]pyrrolidine-2-carboxamide] |  |  |  |  |
| < 35 |  | 35 to 70 | 35 to 70 | 0.1 to 1 |  | > 1 | C=CC(=O)N1CCN(c2nc(O[C@H](C)CN3CCC(OCCOCC(=O)N[C@H](C(=O)N4C[C@H](O)C[C@H]4C(=O)N[C@@H](C)c4ccc(-c5scnc5C)cc4)C(C)(C)C)CC3)nc3c(F)c(-c4cc(O)cc5ccccc45)c(Cl)cc23)[C@@H](C)C1 [Compound 39, (2S,4R)-1-[(2S)-2-{2-[2-({1-[(2R)-2-{[6-chloro-8-fluoro-7-(3-hydroxynaphthalen-1-yl)-4-[(2S)-2-methyl-4-(prop-2-enoyl)piperazin-1-yl]quinazolin-2-yl]oxy}propyl]piperidin-4-yl}oxy)ethoxy]acetamido}-3,3-dimethylbutanoyl]-4-hydroxy-N-[(1S)-1-[4-(4-methyl-1,3-thiazol-5-yl)phenyl]ethyl]pyrrolidine-2-carboxamide] |  |  |  |  |
| < 35 |  | 35 to 70 |  | > 1 | 0.1 to 1 |  | C=CC(=O)N1CCN(c2nc(O[C@H](C)CN3CC(OCC(=O)N[C@H](C(=O)N4C[C@H](O)C[C@H]4C(=O)N[C@@H](C)c4ccc(-c5scnc5C)cc4)C(C)(C)C)C3)nc3c(F)c(-c4cc(O)cc5ccccc45)c(Cl)cc23)CC1 [Compound 41, (2S,4R)-1-[(2S)-2-[2-({1-[(2R)-2-{[6-chloro-8-fluoro-7-(3-hydroxynaphthalen-1-yl)-4-[4-(prop-2-enoyl)piperazin-1-yl]quinazolin-2-yl]oxy}propyl]azetidin-3-yl}oxy)acetamido]-3,3-dimethylbutanoyl]-4-hydroxy-N-[(1S)-1-[4-(4-methyl-1,3-thiazol-5-yl)phenyl]ethyl]pyrrolidine-2-carboxamide] |  |  |  |  |
| 35 to 70 | 35 to 70 | 35 to 70 | > 70 | 0.1 to 1 |  |  | C=CC(=O)N1CCN(c2nc(O[C@H](C)CN3CCC(OCC(=O)N[C@H](C(=O)N4C[C@H](O)C[C@H]4C(=O)N[C@@H](C)c4ccc(-c5scnc5C)cc4)C(C)(C)C)CC3)nc3c(F)c(-c4cc(O)cc5ccccc45)c(Cl)cc23)CC1 [Compound 43, (2S,4R)-1-[(2S)-2-[2-({1-[(2R)-2-{[6-chloro-8-fluoro-7-(3-hydroxynaphthalen-1-yl)-4-[4-(prop-2-enoyl)piperazin-1-yl]quinazolin-2-yl]oxy}propyl]piperidin-4-yl}oxy)acetamido]-3,3-dimethylbutanoyl]-4-hydroxy-N-[(1S)-1-[4-(4-methyl-1,3-thiazol-5-yl)phenyl]ethyl]pyrrolidine-2-carboxamide] |  |  |  |  |
|  |  | < 35 |  | 0.1 to 1 | > 1 |  | C=CC(=O)N1CCN(c2nc(O[C@H](C)CN3CCC(OCCOCC(=O)N[C@H](C(=O)N4C[C@H](O)C[C@H]4C(=O)N[C@@H](C)c4ccc(-c5scnc5C)cc4)C(C)(C)C)CC3)nc3c(F)c(-c4cc(O)cc5ccccc45)c(Cl)cc23)C[C@H]1C [Compound 45, (2S,4R)-1-[(2S)-2-{2-[2-({1-[(2R)-2-{[6-chloro-8-fluoro-7-(3-hydroxynaphthalen-1-yl)-4-[(3R)-3-methyl-4-(prop-2-enoyl)piperazin-1-yl]quinazolin-2-yl]oxy}propyl]piperidin-4-yl}oxy)ethoxy]acetamido}-3,3-dimethylbutanoyl]-4-hydroxy-N-[(1S)-1-[4-(4-methyl-1,3-thiazol-5-yl)phenyl]ethyl]pyrrolidine-2-carboxamide] |  |  |  |  |

| Structure (SMILES) | Dmax (HiBit-KRAS^G12C [1]; [3]) [%] | Dmax (HiBit-KRAS^G12C [1]; [4]) [%] | Dmax (HiBit-KRAS^G12C [2]; [5]) [%] | Dmax (HiBit-KRAS^G12C [2]; [6]) [%] | DC50 (HiBit-KRAS^G12C [2]; [7]) [µM] | DC50 (HiBit-KRAS^G12C [1]; [8]) [µM] | DC50 (HiBit-KRAS^G12C [1]; read-out: KRas^G12C-HiBiT (MiaPaCa; 0.5% DMSO) IC50, MiaPaCa-2 HiBit-KRas^G12C cells, 0.5% DMSO) [µM] | Dmax (HiBit-KRAS^G12C [1]; MIA PaCa-2, read-out: KRas^G12C-HiBiT (MiaPaCa; 0.1% DMSO) DMax, MiaPaCa-2 HiBit-KRas^G12C cells, 0.1% DMSO) [%] | Dmax (HiBit-KRAS^G12C [1]; MIA PaCa-2, read-out: KRas^G12C-HiBiT (MiaPaCa; 0.5% DMSO) DMax, MiaPaCa-2 HiBit-KRas^G12C cells, 0.5% DMSO) [%] | Dmax (HiBit-KRAS^G12C [2]; SW1573, read-out: KRas^G12C-HiBiT (SW1573; 0.5% DMSO) Dmax**, SW1573 HiBit-KRas^G12C, 0.5% DMSO) [%] | Dmax (HiBit-KRAS^G12C [2]; SW1573, read-out: KRas^G12C-HiBit (SW1573; 0.1% DMSO) Dmax**, SW1573 HiBit-KRas^G12C, 0.1% DMSO) [%] |
| --- | --- | --- | --- | --- | --- | --- | --- | --- | --- | --- | --- |
| C=CC(=O)N1CCN(c2nc(O[C@H](C)CN3CCN(C4CN(CC(=O)N[C@H](C(=O)N5C[C@H](O)C[C@H]5C(=O)N[C@@H](C)c5ccc(-c6scnc6C)cc5)C(C)(C)C)C4)CC3)nc3c(F)c(-c4cc(O)cc5ccccc45)c(Cl)cc23)CC1 [Compound 40, (2S,4R)-1-[(2S)-2-[2-(3-{4-[(2R)-2-{[6-chloro-8-fluoro-7-(3-hydroxynaphthalen-1-yl)-4-[4-(prop-2-enoyl)piperazin-1-yl]quinazolin-2-yl]oxy}propyl]piperazin-1-yl}azetidin-1-yl)acetamido]-3,3-dimethylbutanoyl]-4-hydroxy-N-[(1S)-1-[4-(4-methyl-1,3-thiazol-5-yl)phenyl]ethyl]pyrrolidine-2-carboxamide] |  |  |  |  | > 1 | 0.1 to 1 |  | < 35 | < 35 | 35 to 70 | 35 to 70 |
